Publication PMC6556873, “Rapid Covalent-Probe Discovery by Electrophile-Fragment Screening” (Journal of the American Chemical Society, 2019)
Read-outs that look alike come from different tables or passages of the source.

Assays:
BSA = target: T1, BSA (Bos taurus, UniProt P02769); set-up: Intact protein LC/MS covalent labelling, fragments in pools of five, 200 uM each, 4 °C; settings: 24 h, 4 °C, pool of five; 200 µM; covalent
T1 construct: gene ALB

NUDT7 = target: T2, NUDT7 (Homo sapiens, UniProt P0C024); set-up: Intact protein LC/MS covalent labelling, fragments in pools of five, 200 uM each, 4 °C; settings: 24 h, 4 °C, pool of five; 200 µM; covalent
T2 construct: residues 14-235, E. coli, pNIC28-Bsa4, N-terminal His6 tag removed by TEV, construct 26672 Da

OTUB2 (OTUB2A) = target: T3, OTUB2 (OTUB2A) (Homo sapiens, UniProt Q96DC9); set-up: Intact protein LC/MS covalent labelling, fragments in pools of five, 200 uM each, 4 °C; settings: 24 h, 4 °C, pool of five; 200 µM; covalent
T3 construct: full length residues 1-234, E. coli BL21(DE3)-R3, His tag removed by TEV, construct 27312 Da
T3 sequence (Q96DC9 1-234): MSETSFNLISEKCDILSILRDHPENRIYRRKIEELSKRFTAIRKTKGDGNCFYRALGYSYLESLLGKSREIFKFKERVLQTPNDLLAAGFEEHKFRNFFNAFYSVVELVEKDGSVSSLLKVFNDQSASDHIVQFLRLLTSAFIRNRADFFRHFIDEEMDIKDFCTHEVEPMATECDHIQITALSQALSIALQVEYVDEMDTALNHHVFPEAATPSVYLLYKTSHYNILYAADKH

PCAF = target: T4, PCAF (Homo sapiens, UniProt Q92831); set-up: Intact protein LC/MS covalent labelling, fragments in pools of five, 200 uM each, 4 °C; settings: 24 h, 4 °C, pool of five; 200 µM; covalent
T4 construct: gene KAT2B

in vitro [1] = assay: in vitro; set-up: species or system CCD841, HEK293; settings: human, hb2 cells, read-out: HB-2 Cells Viability (%)
in vitro [2] = assay: in vitro; set-up: species or system HB2, HEK293; settings: human, ccd841 cells
in vitro [3] = assay: in vitro; set-up: species or system HB2, CCD841; settings: human, hek293 cells

T2 sequence (P0C024 14-235): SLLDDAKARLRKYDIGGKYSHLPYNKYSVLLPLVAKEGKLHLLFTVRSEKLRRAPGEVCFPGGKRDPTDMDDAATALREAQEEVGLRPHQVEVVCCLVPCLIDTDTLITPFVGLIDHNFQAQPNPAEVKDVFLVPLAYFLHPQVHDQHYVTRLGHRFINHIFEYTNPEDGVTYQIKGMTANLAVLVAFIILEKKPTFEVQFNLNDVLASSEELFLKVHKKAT
T1 sequence (P02769 whole entry, the tested form may be a part): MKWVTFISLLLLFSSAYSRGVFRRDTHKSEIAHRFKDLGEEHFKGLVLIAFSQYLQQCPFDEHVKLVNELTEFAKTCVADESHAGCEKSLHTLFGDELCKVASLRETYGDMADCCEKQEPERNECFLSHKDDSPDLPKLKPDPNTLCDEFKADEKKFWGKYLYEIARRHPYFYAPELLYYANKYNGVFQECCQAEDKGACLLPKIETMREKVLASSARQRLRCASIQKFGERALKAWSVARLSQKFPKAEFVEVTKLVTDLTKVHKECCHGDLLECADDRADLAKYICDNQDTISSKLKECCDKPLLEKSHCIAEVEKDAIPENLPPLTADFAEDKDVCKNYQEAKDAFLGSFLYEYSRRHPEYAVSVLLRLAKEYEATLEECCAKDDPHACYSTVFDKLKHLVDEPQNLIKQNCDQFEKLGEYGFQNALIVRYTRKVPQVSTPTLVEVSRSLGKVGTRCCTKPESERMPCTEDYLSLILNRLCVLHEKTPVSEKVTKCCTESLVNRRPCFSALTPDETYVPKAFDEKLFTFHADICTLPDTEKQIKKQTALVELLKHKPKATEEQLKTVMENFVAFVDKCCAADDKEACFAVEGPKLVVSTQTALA
T4 sequence (Q92831 whole entry, the tested form may be a part): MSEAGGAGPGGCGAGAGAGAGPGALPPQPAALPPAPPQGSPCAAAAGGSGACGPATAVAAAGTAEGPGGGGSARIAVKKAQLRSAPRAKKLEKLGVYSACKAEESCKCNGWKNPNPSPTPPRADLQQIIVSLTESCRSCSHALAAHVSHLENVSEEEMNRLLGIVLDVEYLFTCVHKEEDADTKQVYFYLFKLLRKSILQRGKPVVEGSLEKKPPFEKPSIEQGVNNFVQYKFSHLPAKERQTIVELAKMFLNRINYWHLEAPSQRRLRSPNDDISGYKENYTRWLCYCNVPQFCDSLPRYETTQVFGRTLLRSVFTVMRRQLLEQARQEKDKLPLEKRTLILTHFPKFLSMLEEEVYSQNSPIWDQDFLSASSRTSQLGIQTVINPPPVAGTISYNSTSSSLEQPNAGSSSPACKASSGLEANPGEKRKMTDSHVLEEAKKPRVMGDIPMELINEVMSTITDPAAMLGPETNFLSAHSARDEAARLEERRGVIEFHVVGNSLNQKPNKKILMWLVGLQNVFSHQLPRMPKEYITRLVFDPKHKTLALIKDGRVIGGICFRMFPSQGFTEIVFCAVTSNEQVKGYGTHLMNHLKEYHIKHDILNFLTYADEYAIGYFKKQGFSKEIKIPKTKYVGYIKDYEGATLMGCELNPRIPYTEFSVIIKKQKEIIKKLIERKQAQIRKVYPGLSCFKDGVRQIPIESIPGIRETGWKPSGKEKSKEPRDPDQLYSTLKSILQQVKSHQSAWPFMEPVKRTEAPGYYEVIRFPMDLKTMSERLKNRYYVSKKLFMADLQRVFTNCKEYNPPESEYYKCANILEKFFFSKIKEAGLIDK

Structure (SMILES) | BSA (BSA) | NUDT7 (NUDT7) | OTUB2 (OTUB2 (OTUB2A)) | PCAF (PCAF) | viability at 48 h, 10 µM (in vitro [1]) | viability at 48 h, 10 µM (in vitro [2]) | viability at 48 h, 10 µM (in vitro [3])
O=C(CCl)NCC(F)(F)F [PCM-0102456] | 0 | 0 | 0 | 0 | 102% | 99.4% | 91.9%
C=CC(=O)Nc1cccc(F)c1C [PCM-0102413] | 0 | 0 | 0 | 0 | 100% | 86% | 86.8%
C=CC(=O)Nc1ccc(Br)cc1 [PCM-0102191] | 0 | 0.09 | 0 | 0 | 91.3% | 88.9% | 65.6%
CN(CC12CC3CC(CC(C3)C1)C2)C(=O)CCl [PCM-0102942] | 0 | 0.26 | 0.1 | 0 | 7.8% | 6.7% | 2.4%
COC(=O)c1c(NC(=O)CCl)sc2c1CCC2 [PCM-0102542] | 0 | 0.14 | 0 | 0 | 18.1% | 70.6% | 18.6%
C=CC(=O)NC(C#N)C(C)C (stereo not shown) [PCM-0102529] | 0 | 0 | 0 | 0 | 102% | 98.9% | 89.7%
COCC(=O)NNC(=O)CCl [PCM-0103070] | 0 | 0 | 0 | 0 | 95.3% | 85.8% | 97.1%
C=CC(=O)NCC1(O)CCS(=O)(=O)CC1 [PCM-0102691] | 0 | 0 | 0.2 | 0 | 104% | 104% | 103%
CC(C)N(CC(F)(F)F)C(=O)CCl [PCM-0102516] | 0 | 0 | 0 | 0 | 103% | 109% | 106%

Second part, led by results:

BSA (BSA) | NUDT7 (NUDT7) | OTUB2 (OTUB2 (OTUB2A)) | PCAF (PCAF) | Structure (SMILES) | viability at 48 h, 10 µM (in vitro [1]) | viability at 48 h, 10 µM (in vitro [2]) | viability at 48 h, 10 µM (in vitro [3])
0 | 0.12 | 0 | 0 | Cc1ccc(S(=O)(=O)N2CCN(C(=O)CCl)CC2)cc1 [PCM-0102759] | 7.5% | 49.9% | 8.6%
0 | 0.19 | 0.41 | 0 | COC(=O)C1Cc2ccccc2CN1C(=O)CCl (stereo not shown) [PCM-0102841] | 96.4% | 77.3% | 60.3%
0 | 0 | 0 | 0 | C=CC(=O)NCc1cnn2ccccc12 [PCM-0102561] | 108% | 124% | 95.2%
0 | 0 | 0.49 | 0 | O=C(CCl)Nc1ccc(N2CCCC2=O)cc1 [PCM-0102915] | 59.3% | 65.3% | 17.7%
0 | 0 | 0 | 0 | O=C(CCl)N1CCC(c2ccccc2)=N1 [PCM-0102150] | 31.2% | 71.8% | 32.7%
0 | 0 | 0.43 | 0 | Cc1ccc(C)c(-n2nc(C)cc2NC(=O)CCl)c1 [PCM-0102249] | 45.3% | 64% | 25.4%
0 | 0 | 0 | 0 | O=C(CCl)NC(=O)c1ccco1 [PCM-0102195] | 98% | 109% | 87.3%
